Patent US20250058002A1, “ELECTROCHEMICAL INHIBITION OF REDOX ACTIVE BACTERIA AND RELATED DEVICES, METHODS AND SYSTEMS” (priority 2023, published 2025)
Read-outs that look alike come from different tables or passages of the source.

Experiments:
[1] = Standard electrode potential E0' vs NHE of exemplary redox-active compounds (Table 4); type: physicochemical; conditions: measured in aqueous solution at pH 7 in this study (footnote b)
Description: (§1) Phenazines and other redox active compound in the sense of the disclosure can be further characterized by various electrical properties such as a standard electrode potential E° vs. NHE of −500 mV to 500 mV and other properties such as number of redox cycle over a certain period of time (e.g. number of days) as ability to support survival and susceptibility to reduction by enzymes and/or bacterial strains.

PA14 [2] = experiment: Redox cycles over 7 days and support of survival (Table 4); type: cell-based, P. aeruginosa
Description: as §1

PA14 [3] = experiment: Reduction of redox-active compound by PA14 (Table 4); type: cell-based, P. aeruginosa
Description: as §1

[4] = oxidized form; literature values (footnotes a, c, d); cited from earlier work
[5] = Midpoint potential E1/2 by voltammetry vs Ag/AgCl (3M KCl); type: physicochemical; conditions: for E1/2 (vs. Ag/AgCl (3M KCl))/mV: Example 15 table
Experimental: The purified redox-active molecule can be dissolved in aqueous solution at appropriate concentration in the presence of supporting electrolyte and buffer to select the pH of measurement. For example, the redox-active molecule can be dissolved in 10 μM-10 mM concentrations in distilled, deionized water (DDW). The supporting electrolyte can be a salt such as NaCl or KCl at 0.01-0.5 M concentrations, for example, dissolved in DDW. The buffer can be 10 mM ammonium acetate/3-(N-morpholino)propanesulfonic acid at pH 7, or phosphate-buffered saline (PBS) at pH 7.4, or sodium acetate buffer at pH 5, or di-sodium hydrogen phosphate/potassium dihydrogen phosphate at pH 9, or boric acid/citric acid/trisodium phosphate for a wide range of pH values, for example.
Voltammetric methods are then used to characterize the electrochemical behavior of the redox-active molecule in such solution, with a potentiostat such as a Gamry PC4-300, using a three-electrode setup with working electrode (glassy carbon, or platinum, or gold), counter electrode (platinum wire) and reference electrode (Ag/AgCl (3M KCl), or SCE, or NHE; values are reported relative to Ag/AgCl (3M KCl) which has potential +197 mV vs. NHE at 298K).
For example, cyclic voltammetry may be used. In a cyclic voltammetry experiment phenazines will show a peak on the cathodic sweep (denoted Epc) corresponding to the reduction of the redox molecule.
The reverse, anodic sweep will show a peak (denoted Epa) corresponding to the re-oxidation of the redox molecule. If the electrode reaction is diffusion-controlled and reversible, the cathodic and anodic peak currents will be equal in area, and the mid-point between these peaks may be taken as the formal reduction potential of the redox molecule under the experimental conditions used. This value can interchangeably be referred to as the “midpoint potential” or “mid-peak potential”, denoted E1/2.
PYO was purified from aerobic bacterial cultures and was dissolved in 0.1 M KCl aqueous solution buffered with 10 mM ammonium acetate-3-(N-morpholino)propanesulfonic acid (5 mM each, pH 7) to yield a stock solution concentration of 829 μM PYO. Electrochemical measurements were performed with a Gamry PC4-300 potentiostat. A stationary gold disk electrode (BASi) was used as the working electrode, an Ag/AgCl electrode (RE-51, BASi) as the reference, and a straight platinum wire (BASi) was the counter electrode. Scans were performed between 20 and 500 mV/s in the potential range of around E1/2 (+/−300 mV), at 298 K.
As described in en.wikipedia.org/wiki/Nernst_equation, the Nernst equation relates E1/2 measured at pH 7 to the E1/2 at a different pH by:
[formula] • where E1/2 is in V • h is the number of protons transferred in the electrochemical reaction • e is the number of electrons transferred in the electrochemical reaction

[6] = Square wave voltammograms of electrode-attached biofilms; type: physicochemical; conditions: acquired immediately after transfer to anoxic reactors
Experimental: FIG. 3: Electrochemical signal of wild type, Δphz*, and Δphz*+10 μM PYO showing PYO (E1/2=−250 mV vs Ag/AgCl) is the only redox active signal observed under these conditions and is retained by wild type biofilms. Square wave voltammograms acquired immediately after transfer to anoxic reactors.
Square Wave Voltammograms. Potential was scanned from +100 mV to −500 mV vs Ag/AgCl and in reverse with the following parameters: pulse height=50 mV, pulse width=66.6 ms, step height=−0.5 mV, and acquisition of the average current over the last 50% of each step. Square wave voltammograms were acquired immediately after transfer from oxic to anoxic conditions.

Δphz* biofilms = experiment: Anoxic survival (CFU) of electrode-attached phenazine-deficient biofilms at poised potential; type: cell-based, P. aeruginosa UCBPP-PA14; Δphz*; conditions: 10 μM PYO added, PYO-reductive conditions
Experimental: Electrochemical reactors and biofilm growth. Double-jacketed electrochemical reactors (Pine Instruments, 250 ml, wide center port 29/26) were used with ITO-coated 0.2 mm thick boro-aluminosilicate glass slides (Delta Technologies, 24×60 mm, Rs=7-10Ω) as working electrodes, freshly sanded graphite rods (Alfa Aesar) as counter electrodes, and Ag/AgCl in 3M KCl reference electrodes (BASi). Silver epoxy (Electron Microscopy Sciences) was used to make electrical connection between insulated wire ([…]) and working electrode and was insulated using 5 Minute® expoxy (Devcon). Working electrodes were assembled within 5 hours of use. Reactors were sterilized by autoclaving without reference or working electrodes, which were sterilized by submerging in 10% bleach for 5 minutes or 30 seconds, respectively, and rinsed in sterile water. Individual mid-log liquid cultures (OD600 0.45-0.55) were used to inoculate sterile reactors containing 140 ml of MM (described above) with 0.1% (vol/vol) for each biological replicate. Antibiotics were not added at this point. Working electrodes were poised at either open circuit, +100 mV, or −400 mV vs. Ag/AgCl (+310 mV and −190 mV vs the standard hydrogen electrode, respectively). Reactors were aerated using an aquarium pump with a 0.2 μm filter (Thermo Scientific) and heated to 31° C. using a circulating water bath (Haake A 25, Thermo Scientific). Fresh medium was exchanged every 24 hours for 5 days. After 5 days of aerobic growth, working electrode-attached biofilms were rinsed in sterile medium to remove planktonic cells and transferred to sterile reactors with fresh MM previously flushed for 2 hours with N2 ultra-high purity gas (NRL supply store). For antibiotic exposure experiments, antibiotics were added to sterile media before flushing with N2. […]
Biofilm harvesting and processing. […] SYTO-60 was excited with a 561 nm; 0.20% laser and emission was recorded from 580-700 nm. TOTO-1 was excited with a 488 nm; 0.20% laser and emission was recorded from 490 to 580 nm.

[7] = vs NHE at pH7; cited from earlier work
[8] = from Wang and Newman (2008), cited from earlier work
[9] = tested on: P. aeruginosa PA14 liquid cultures; experiment: Toxicity of reduced PYO to liquid-grown cells under anoxic conditions; type: cell-based; conditions: 1, 10, and 100 μM reduced PYO, 30 minutes, normalized to untreated
Experimental: FIG. 8: Toxicity of reduced PYO to liquid-grown cells. Exposure of mid-log aerobic P. aeruginosa PA14 liquid cultures to 1, 10, and 100 μM reduced PYO under anoxic conditions. Triplicate data shown normalized to untreated samples with line at mean.
Treatment of liquid cultures with reduced PYO. 100 μM PYO in MM was reduced electrochemically using a dual-chamber reactor with an cation exchange membrane (CMI-7000, Membranes International) to avoid re-oxidation of PYO at the counter electrode. […] chamber contained Ag/AgCl reference electrode, platinum mesh working electrode, and was flushed with N2; while […] chamber was oxic and contained platinum mesh counter electrode. PYO reduction was carried out by poising the working electrode at −400 mV vs. Ag/AgCl for 24 hours, past the point of 100% PYO reduction based on coulombic efficiency, and biochemical reactor was then transferred into the anaerobic chamber. Anoxic vials with pre-equilibrated MM and corresponding concentrations of reduced PYO were then treated with biochemical O2 scavenging system (10 mM glucose+375 nM glucose oxidase+750 nM catalase) for an hour before inoculation. Aerobic liquid cultures of P. aerughnosa in MM at mid-log (OD600=0.5) were spun down and resuspended in fresh media and used to inoculate assays with 10% (vol/vol). […]

For `CN(C)c1ccc2nc3ccc(=[N+](C)C)cc-3sc2c1` [Methylene blue (MB), Methylene blue], the “E0' (vs. NHE) (mV)” value [1] was 0 mV, the “Support survival?” value (PA14 [2]) was “No” and the “# of Redox cycles over 7 days” value (PA14 [2]) was 3. The “Reduction by PA14?” value (PA14 [3]) was “Yes” and the “E0' (vs. NHE) (mV)” value [4] was “+11 mV”.
With `Cn1c2cccc(=O)c-2nc2ccccc21` [Pyocyanin (PYO), Pyocyanin] the “Support survival?” value (PA14 [2]) was “Yes”, the “# of Redox cycles over 7 days” value (PA14 [2]) was 31 and the “Reduction by PA14?” value (PA14 [3]) was “Yes”. The “E1/2 (vs. Ag/AgCl (3M KCl))/mV” value ([5]; pH 5) was −128 mV, the “E1/2 estimated vs. Ag/AgCl (3M KCl)” value ([5]; pH 6, estimated) was −178 mV and the “E1/2 (vs. Ag/AgCl (3M KCl))/mV” value ([5]; pH 6) was −189 mV. For the same compound, the “E1/2 vs. Ag/AgCl (3M KCl)” value ([5]; pH 7, 298 K, 0.1 M KCl, gold disk working electrode) was −237 mV, the “E1/2 vs. NHE” value ([5]; pH 7, 298 K, corrected to NHE by adding 197 mV) was −40 mV and the “E1/2 (vs. Ag/AgCl (3M KCl))/mV” value ([5]; pH 7) was −237 mV. The “E1/2 estimated by Nernst equation” value ([5]; pH 8, estimated from pH 7 value) was −296 mV, the “E1/2 (vs. Ag/AgCl (3M KCl))/mV” value ([5]; pH 8) was −300 mV and the “E1/2 vs Ag/AgCl in biofilm square wave voltammograms” value [6] was −250 mV. The “effect of PYO addition on Δphz* biofilm CFUs (in words)” value (Δphz* biofilms; listed as PYO) was “sensitized under PYO-reductive conditions”, the “effect of PYO addition on Δphz* biofilm CFUs (in words)” value (Δphz* biofilms; listed as pyocyanin) was “re-sensitized” and the “Redox potentials E (mV)” value [7] was −34 mV. For the same compound, the “E0' (vs. NHE) (mV)” value [4] was −40^a mV, the “E1/2 (vs. Ag/AgCl (3M KCl))/mV” value ([8]; pH 5) was −128 mV and the “E1/2 (vs. Ag/AgCl (3M KCl))/mV” value ([8]; pH 6) was −189 mV. The “E1/2 (vs. Ag/AgCl (3M KCl))/mV” value ([8]; pH 7) was −237 mV and the “E1/2 (vs. Ag/AgCl (3M KCl))/mV” value ([8]; pH 8) was −300 mV.
In the case of `CN1c2ccccc2Nc2c(O)cccc21` [reduced PYO], the “decrease in CFUs of liquid cultures” value [9] is reported as “two- to threefold decrease in CFUs”.
